{
  "source": "paper PMC4786259",
  "about": "(PLoS ONE, 2016)",
  "key": {"β1-AR": {"biological_target": "β1-AR (Homo sapiens, UniProt P08588)", "sequence (P08588 whole entry)": "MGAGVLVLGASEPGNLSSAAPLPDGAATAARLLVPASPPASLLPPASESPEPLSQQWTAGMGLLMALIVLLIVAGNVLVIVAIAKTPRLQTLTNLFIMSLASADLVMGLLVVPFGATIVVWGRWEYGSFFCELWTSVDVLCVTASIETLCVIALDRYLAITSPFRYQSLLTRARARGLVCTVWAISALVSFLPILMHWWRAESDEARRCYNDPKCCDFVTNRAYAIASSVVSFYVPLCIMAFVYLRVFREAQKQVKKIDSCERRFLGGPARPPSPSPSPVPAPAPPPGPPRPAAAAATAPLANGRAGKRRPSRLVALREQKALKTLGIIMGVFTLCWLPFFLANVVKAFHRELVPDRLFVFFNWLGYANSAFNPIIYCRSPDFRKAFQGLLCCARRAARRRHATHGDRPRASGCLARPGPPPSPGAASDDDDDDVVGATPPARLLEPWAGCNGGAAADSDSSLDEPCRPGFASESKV", "assay": "PDSP radioligand competition binding", "settings": "radioligand [^3H]CGP12177; read-out: In vitro Affinity"}, "5-HT1A": {"biological_target": "T1, 5-HT1A (Homo sapiens, UniProt P08908)", "T1 construct": "expressed in transfected cells", "T1 sequence (P08908 1-422)": "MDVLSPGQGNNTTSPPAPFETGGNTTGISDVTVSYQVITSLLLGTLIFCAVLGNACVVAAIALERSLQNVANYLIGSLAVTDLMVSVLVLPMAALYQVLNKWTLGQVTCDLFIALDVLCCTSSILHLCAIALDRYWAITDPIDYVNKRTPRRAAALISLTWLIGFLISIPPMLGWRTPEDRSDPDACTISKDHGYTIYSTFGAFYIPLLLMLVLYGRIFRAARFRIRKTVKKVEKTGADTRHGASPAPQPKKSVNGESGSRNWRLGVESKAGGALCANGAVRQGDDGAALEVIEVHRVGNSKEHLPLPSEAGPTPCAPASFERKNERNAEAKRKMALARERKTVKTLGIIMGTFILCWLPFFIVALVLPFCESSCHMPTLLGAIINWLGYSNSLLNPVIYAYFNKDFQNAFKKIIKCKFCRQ", "assay": "PDSP receptor functional assay", "assay_type": "cell-based"}, "5-HT7": {"biological_target": "T2, 5-HT7 (Homo sapiens, UniProt P34969)", "T2 construct": "expressed in transfected cells", "T2 sequence (P34969 whole entry, species assumed)": "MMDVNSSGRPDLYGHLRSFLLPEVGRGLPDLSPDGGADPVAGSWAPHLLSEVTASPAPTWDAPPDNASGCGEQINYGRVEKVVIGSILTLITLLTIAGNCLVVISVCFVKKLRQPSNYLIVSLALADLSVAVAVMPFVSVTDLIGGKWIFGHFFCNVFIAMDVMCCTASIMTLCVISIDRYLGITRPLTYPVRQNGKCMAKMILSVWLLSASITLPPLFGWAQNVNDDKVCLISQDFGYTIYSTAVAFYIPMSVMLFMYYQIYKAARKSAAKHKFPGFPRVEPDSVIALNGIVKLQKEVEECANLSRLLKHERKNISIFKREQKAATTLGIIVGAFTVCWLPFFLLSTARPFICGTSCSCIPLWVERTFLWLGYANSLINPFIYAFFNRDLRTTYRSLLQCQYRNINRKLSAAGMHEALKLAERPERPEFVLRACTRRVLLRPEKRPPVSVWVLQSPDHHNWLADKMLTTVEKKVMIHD", "assay": "PDSP radioligand competition binding", "settings": "radioligand [^3H]LSD; read-out: In Vitro Affinity"}, "5-HT6 [1]": {"biological_target": "T3, 5-HT6 (Homo sapiens, UniProt P50406)", "T3 construct": "expressed in transfected cells", "T3 sequence (P50406 whole entry, species assumed)": "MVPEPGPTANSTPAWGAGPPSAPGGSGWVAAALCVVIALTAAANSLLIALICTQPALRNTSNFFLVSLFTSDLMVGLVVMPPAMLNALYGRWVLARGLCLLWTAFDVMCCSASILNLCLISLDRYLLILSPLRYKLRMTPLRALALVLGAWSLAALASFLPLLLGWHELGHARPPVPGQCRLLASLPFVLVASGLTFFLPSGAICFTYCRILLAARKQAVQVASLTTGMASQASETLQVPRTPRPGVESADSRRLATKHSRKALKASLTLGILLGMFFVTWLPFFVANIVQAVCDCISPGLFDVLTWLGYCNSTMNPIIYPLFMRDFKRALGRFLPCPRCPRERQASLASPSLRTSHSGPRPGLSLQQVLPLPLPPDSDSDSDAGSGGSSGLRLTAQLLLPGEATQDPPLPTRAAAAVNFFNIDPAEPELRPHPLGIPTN", "assay": "PDSP radioligand competition binding", "settings": "radioligand [^3H]LSD; read-out: In Vitro Affinity"}, "D5": {"biological_target": "D5 (Homo sapiens, UniProt P21918)", "sequence (P21918 whole entry, looked up)": "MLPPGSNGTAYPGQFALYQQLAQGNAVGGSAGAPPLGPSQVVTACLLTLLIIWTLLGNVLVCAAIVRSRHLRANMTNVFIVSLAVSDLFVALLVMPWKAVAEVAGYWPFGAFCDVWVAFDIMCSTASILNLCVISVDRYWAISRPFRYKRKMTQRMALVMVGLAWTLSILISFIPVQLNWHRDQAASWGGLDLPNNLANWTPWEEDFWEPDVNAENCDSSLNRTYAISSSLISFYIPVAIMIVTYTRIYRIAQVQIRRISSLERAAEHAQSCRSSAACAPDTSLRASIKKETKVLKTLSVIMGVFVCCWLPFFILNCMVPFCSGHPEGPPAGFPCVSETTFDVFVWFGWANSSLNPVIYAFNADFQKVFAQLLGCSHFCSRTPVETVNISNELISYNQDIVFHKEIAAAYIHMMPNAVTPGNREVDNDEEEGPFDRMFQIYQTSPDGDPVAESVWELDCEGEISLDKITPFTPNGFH", "assay": "PDSP receptor functional assay", "assay_type": "cell-based"}, "DOR": {"biological_target": "DOR (Homo sapiens, UniProt P41143)", "sequence (P41143 whole entry)": "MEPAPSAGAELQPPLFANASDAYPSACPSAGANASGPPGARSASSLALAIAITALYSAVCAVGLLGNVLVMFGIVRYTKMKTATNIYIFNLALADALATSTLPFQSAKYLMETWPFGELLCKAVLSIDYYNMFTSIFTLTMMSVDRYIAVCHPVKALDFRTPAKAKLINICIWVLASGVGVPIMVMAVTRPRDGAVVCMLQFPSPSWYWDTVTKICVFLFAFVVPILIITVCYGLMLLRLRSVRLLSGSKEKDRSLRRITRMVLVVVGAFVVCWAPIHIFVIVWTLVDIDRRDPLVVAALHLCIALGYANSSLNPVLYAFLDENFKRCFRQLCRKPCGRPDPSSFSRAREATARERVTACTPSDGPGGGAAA", "assay": "PDSP radioligand competition binding", "settings": "radioligand [^3H]DADLE; read-out: In vitro Affinity"}, "male C57BL/6J mice": {"test_system": "male C57BL/6J mice", "assay": "PCP-induced hyperlocomotor activity (open field)", "assay_type": "in vivo", "description": "Locomotor activity was assessed in AccuScan activity monitors (41X41X30 cm; AccuScan Instruments, Columbus, OH) with photocells spaced at 1.52 cm as described. In these monitors, the photocells create a grid of light beams, and breaks in the light beams (caused by the mouse) are recorded. The Accuscan software then calculates the total distance travelled (amongst other measurements) by analyzing the sequential order of beam breaks in the grid. Horizontal activity was measured as the total distance traveled in centimeters and was recorded in 5-minute bins. PCP-induced hyperlocomotor activity: mice (n = 16) previously acclimated to activity chambers were placed into the chambers for 15 minutes. […] Subsequently, mice were injected with 6.0 mg/kg PCP (i.p.) and returned to the chamber for 90 minutes. Induction of AMPH-induced hyperlocomotor activity followed an identical protocol except locomotor activity was recorded for a total of 75 minutes and 3 mg/kg AMPH was used (i.p.)."}, "5-HT6 [2]": {"biological_target": "T3, 5-HT6", "assay": "PDSP receptor functional assay", "assay_type": "cell-based"}, "5-HT2B": {"biological_target": "T4, 5-HT2B (Homo sapiens, UniProt P41595)", "T4 construct": "expressed in transfected cells", "T4 sequence (P41595 whole entry, species assumed)": "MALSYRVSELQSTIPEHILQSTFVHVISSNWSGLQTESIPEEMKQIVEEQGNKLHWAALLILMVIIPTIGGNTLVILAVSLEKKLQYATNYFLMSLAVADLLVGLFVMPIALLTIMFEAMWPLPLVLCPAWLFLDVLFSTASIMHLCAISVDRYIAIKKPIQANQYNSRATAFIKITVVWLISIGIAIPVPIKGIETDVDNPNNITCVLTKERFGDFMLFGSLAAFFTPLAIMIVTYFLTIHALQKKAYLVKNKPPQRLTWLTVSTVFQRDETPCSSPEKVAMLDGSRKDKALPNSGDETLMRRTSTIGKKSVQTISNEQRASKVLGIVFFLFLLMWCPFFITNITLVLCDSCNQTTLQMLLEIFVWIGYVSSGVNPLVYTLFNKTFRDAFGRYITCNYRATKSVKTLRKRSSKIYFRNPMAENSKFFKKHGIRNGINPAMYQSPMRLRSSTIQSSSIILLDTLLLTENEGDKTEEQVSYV", "assay": "PDSP radioligand competition binding", "settings": "radioligand [^3H]LSD; read-out: In Vitro Affinity"}, "[3]": {"settings": "rats; cited from earlier work"}, "D4": {"biological_target": "T5, D4 (Homo sapiens, UniProt P21917)", "T5 construct": "expressed in transfected cells", "T5 sequence (P21917 1-419)": "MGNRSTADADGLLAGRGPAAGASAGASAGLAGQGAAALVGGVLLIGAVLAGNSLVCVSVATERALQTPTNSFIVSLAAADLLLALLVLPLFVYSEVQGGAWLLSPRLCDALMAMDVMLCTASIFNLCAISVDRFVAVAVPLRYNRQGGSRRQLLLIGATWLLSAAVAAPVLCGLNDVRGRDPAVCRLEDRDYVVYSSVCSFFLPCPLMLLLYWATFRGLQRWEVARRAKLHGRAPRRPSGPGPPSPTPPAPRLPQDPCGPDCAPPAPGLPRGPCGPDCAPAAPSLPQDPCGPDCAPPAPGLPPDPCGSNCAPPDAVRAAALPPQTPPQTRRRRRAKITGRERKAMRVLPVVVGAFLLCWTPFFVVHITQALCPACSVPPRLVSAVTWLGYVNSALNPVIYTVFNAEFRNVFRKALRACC", "assay": "PDSP receptor functional assay", "assay_type": "cell-based"}, "α1A": {"biological_target": "α1A (Homo sapiens, UniProt P35348)", "sequence (P35348 whole entry)": "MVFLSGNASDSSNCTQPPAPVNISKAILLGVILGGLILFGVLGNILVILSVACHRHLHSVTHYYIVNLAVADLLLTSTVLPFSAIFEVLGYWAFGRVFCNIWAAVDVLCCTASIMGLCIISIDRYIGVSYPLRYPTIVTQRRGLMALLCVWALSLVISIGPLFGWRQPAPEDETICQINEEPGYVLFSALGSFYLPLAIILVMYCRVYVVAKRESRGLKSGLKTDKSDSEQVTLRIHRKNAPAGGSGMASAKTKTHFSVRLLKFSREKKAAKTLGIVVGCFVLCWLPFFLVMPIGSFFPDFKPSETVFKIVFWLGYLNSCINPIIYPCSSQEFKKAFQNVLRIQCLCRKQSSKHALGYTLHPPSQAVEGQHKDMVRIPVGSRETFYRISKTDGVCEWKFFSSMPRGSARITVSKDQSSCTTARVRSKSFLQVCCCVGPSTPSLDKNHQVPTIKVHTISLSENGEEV", "assay": "PDSP radioligand competition binding", "settings": "radioligand [^3H]Prazosin; read-out: In vitro Affinity"}, "H2": {"biological_target": "H2 (Homo sapiens, UniProt P25021)", "sequence (P25021 whole entry)": "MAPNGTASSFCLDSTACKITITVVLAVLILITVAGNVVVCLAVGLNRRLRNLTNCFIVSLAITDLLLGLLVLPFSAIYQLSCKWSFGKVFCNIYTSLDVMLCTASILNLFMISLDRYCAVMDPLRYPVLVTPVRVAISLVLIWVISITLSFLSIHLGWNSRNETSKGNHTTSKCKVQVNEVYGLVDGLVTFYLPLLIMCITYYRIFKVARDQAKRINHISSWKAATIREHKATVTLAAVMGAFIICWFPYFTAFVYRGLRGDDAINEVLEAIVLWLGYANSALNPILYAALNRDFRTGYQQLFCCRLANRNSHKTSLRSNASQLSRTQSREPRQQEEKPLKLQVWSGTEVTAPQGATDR", "assay": "PDSP radioligand competition binding", "settings": "radioligand [^3H]Cimetidine; read-out: In vitro Affinity"}, "α2C": {"biological_target": "α2C (Homo sapiens, UniProt P18825)", "sequence (P18825 whole entry)": "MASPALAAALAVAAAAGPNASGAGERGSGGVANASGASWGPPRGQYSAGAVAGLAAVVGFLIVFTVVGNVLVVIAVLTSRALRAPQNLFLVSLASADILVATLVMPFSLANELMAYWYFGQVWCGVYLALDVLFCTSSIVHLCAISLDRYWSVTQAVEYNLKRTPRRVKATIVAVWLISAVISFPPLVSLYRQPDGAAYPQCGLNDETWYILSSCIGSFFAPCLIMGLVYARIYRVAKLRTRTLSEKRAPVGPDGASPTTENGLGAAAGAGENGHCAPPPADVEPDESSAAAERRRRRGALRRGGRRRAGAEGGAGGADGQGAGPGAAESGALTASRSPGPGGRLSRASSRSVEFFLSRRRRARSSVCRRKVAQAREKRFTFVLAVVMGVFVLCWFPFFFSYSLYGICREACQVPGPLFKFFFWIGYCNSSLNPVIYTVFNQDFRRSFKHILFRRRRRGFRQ", "assay": "PDSP radioligand competition binding", "settings": "radioligand [^3H]Rauwolscine; read-out: In vitro Affinity"}, "male B6129 hybrid mice": {"test_system": "male B6129 hybrid mice", "assay": "Clozapine drug discrimination (substitution)", "assay_type": "in vivo", "description": "Adult male B6129 hybrid mice (n = 12) were trained to respond under a FR10 schedule and were reinforced by presentation of sweetened milk as described previously. The drug and vehicle lever positions were counterbalanced between groups to control for olfactory cues. All injections were given subcutaneously with a pre-session injection time of 30 minutes. Training occurred on a double alternation injection schedule with two days of VEH followed by two days of CLZ and repeated (VEH, VEH, CLZ, CLZ, VEH, VEH etc.). In order for a mouse to pass a training day it had to meet three criteria: (1) complete the first fixed ratio (FR) on the condition-appropriate lever, (2) at least 80% of the total responses were made on the condition-appropriate lever, and (3) at least 10 responses per minute were made during the session. Drug testing was conducted approximately two times per week with at least two training days in between. To be eligible for testing, mice were required to pass both a drug and vehicle training day consecutively. […] Responses on both levers were reinforced.\nA p<0.05 was considered significant."}, "β3-AR": {"biological_target": "β3-AR (Homo sapiens, UniProt P13945)", "sequence (P13945 whole entry)": "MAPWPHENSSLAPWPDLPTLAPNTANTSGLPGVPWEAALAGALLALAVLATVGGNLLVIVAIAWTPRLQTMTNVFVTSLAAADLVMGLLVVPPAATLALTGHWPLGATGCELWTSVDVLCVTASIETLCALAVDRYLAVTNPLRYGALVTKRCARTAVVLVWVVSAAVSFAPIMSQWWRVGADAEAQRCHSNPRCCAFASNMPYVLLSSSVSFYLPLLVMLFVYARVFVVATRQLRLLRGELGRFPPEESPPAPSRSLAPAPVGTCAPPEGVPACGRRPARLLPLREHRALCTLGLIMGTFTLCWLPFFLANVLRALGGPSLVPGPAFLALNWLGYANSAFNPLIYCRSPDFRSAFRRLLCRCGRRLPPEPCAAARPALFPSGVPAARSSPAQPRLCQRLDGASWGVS", "assay": "PDSP radioligand competition binding", "settings": "radioligand [^3H]CGP12177; read-out: In vitro Affinity"}, "dopamine D2 receptor": {"biological_target": "T6, dopamine D2 receptor (Homo sapiens, UniProt P14416)", "T6 construct": "expressed in transfected cells; host or cells: HEKT cells (ATCC)", "T6 sequence (P14416 whole entry, species assumed)": "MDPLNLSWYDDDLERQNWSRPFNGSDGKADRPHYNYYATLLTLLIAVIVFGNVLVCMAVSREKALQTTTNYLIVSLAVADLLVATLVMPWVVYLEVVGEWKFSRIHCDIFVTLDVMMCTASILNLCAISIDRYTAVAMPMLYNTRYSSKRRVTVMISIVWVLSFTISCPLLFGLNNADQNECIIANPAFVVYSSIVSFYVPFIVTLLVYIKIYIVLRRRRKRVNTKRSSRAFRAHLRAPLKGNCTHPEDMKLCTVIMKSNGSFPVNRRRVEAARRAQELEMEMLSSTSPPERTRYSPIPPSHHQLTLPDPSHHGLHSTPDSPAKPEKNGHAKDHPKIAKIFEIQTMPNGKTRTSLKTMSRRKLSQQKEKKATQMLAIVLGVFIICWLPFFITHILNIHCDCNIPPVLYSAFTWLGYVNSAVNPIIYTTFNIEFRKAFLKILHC", "assay_type": "cell-based"}},
  "note": "Read-outs that look alike come from different tables or passages of the source.",
  "data": [
    {"smiles": "COc1cc2c3c(c1OC)-c1ccccc1C[C@H]3N(C)CC2", "note": "[nuciferine]", "values": [
      {"measurement": "Ki", "setting": "β1-AR", "value": 7.15, "unit": "µM"},
      {"measurement": "Function Type", "setting": "5-HT1A", "value": "Agonist"},
      {"measurement": "EC50", "setting": "5-HT1A; 5-HT1A agonist, read-out: EC50", "value": 3.2, "unit": "µM"},
      {"measurement": "EC50", "setting": "5-HT1A; agonist, read-out: Functional EC50", "value": 3.23, "unit": "µM"},
      {"measurement": "Ki", "setting": "5-HT7", "value": 49.8, "unit": "nM"},
      {"measurement": "Ki", "setting": "5-HT6 [1]", "value": 268, "unit": "nM"},
      {"measurement": "EC50", "setting": "D5", "value": 2600, "unit": "nM"},
      {"measurement": "Function Type", "setting": "D5", "value": "Partial agonist"},
      {"measurement": "Emax", "setting": "D5; partial agonist efficacy, read-out: maximal response", "value": 50, "unit": "%"},
      {"measurement": "Ki", "setting": "DOR", "value": 10, "unit": "µM"},
      {"measurement": "PCP-stimulated locomotor activity", "setting": "male C57BL/6J mice; 3 mg/kg i.p. before 6.0 mg/kg PCP", "value": "failed to significantly alter the PCP-induced hyperlocomotion"},
      {"measurement": "PCP-stimulated locomotor activity", "setting": "male C57BL/6J mice; 10.0 mg/kg i.p. before 6.0 mg/kg PCP", "value": "significantly blocked"},
      {"measurement": "EC50", "setting": "5-HT6 [2]", "value": 700, "unit": "nM"},
      {"measurement": "Function Type", "setting": "5-HT6 [2]", "value": "Partial agonist"},
      {"measurement": "Emax", "setting": "5-HT6 [2]; read-out: maximal effect", "value": 17.3, "unit": "%"},
      {"measurement": "Ki", "setting": "5-HT2B", "value": 41, "unit": "nM"},
      {"measurement": "crossing of the blood brain barrier", "setting": "[3]", "value": "shown to cross the blood brain barrier"},
      {"measurement": "Function Type", "setting": "D4", "value": "agonist"},
      {"measurement": "EC50", "setting": "D4; agonist", "value": 2000, "unit": "nM"},
      {"measurement": "Ki", "setting": "α1A", "value": 1390, "unit": "nM"},
      {"measurement": "Ki", "setting": "H2", "value": 1660, "unit": "nM"},
      {"measurement": "Ki", "setting": "α2C", "value": 693, "unit": "nM"},
      {"measurement": "drug lever responding", "setting": "male B6129 hybrid mice; 10.0 mg/kg s.c., animals trained on 1.25 mg/kg clozapine", "value": 80.63, "unit": "%"},
      {"measurement": "ED50", "setting": "male B6129 hybrid mice; Mus musculus, sc, 95% CI 3.09–9.48 mg/kg", "value": 5.42, "unit": "mg/kg"},
      {"measurement": "substitution for clozapine's discriminative cue", "setting": "male B6129 hybrid mice; lower doses 0.1 mg/kg–3.0 mg/kg", "value": "failed to produce substitution"},
      {"measurement": "Ki", "setting": "β3-AR", "value": 1100, "unit": "nM"},
      {"measurement": "Function Type", "setting": "dopamine D2 receptor", "value": "Partial agonist"},
      {"measurement": "Emax", "setting": "dopamine D2 receptor; D2 partial agonist activity, Fig 4A", "value": "67 % of dopamine"}
    ]}
  ]
}
